The NIST ThermoML archive (doi:10.1021/acs.jced.7b00221)

Assay: xn = mol fraction of the nth substance listed
Conditions: 100 kPa, Liquid; for viscosity: Cone and plate viscometry; for mass density: Vibrating tube method

CCCCCCn1cc[n+](C)c1.O=[N+]([O-])c1cn[n-]c1 [1-hexyl-3-methylimidazolium 4-nitropyrazolide] + CCCCCCCCCCCCCC[P+](CCCCCC)(CCCCCC)CCCCCC.O=S(=O)([N-]S(=O)(=O)C(F)(F)F)C(F)(F)F
Conditions | mass density, x1 = 0.25 [kg/m3] | mass density, x1 = 0.5 [kg/m3] | mass density, x1 = 0.749 [kg/m3] | viscosity, x1 = 0.101 [mPa·s] | viscosity, x1 = 0.299 [mPa·s] | viscosity, x1 = 0.5 [mPa·s] | viscosity, x1 = 0.7 [mPa·s] | viscosity, x1 = 0.9 [mPa·s]
278.15 K | – | – | – | 1201 | 1360 | 1582 | 2039 | 2649
283.15 K | 1081.8 | 1090.7 | 1105.6 | 816 | 914 | 1045 | 1290 | 1540
288.15 K | 1078.2 | 1087.1 | 1102 | 570 | 629 | 707 | 840 | 935
293.15 K | 1074.6 | 1083.6 | 1098.5 | 410 | 445 | 492 | 566 | 597
295.15 K | 1073.1 | 1082.2 | 1097.2 | – | – | – | – | –
298.15 K | 1071 | 1080.1 | 1095.2 | 302 | 323 | 352 | 395 | 400
303.15 K | 1067.4 | 1076.6 | 1091.7 | 228 | 241 | 259 | 285 | 278
308.15 K | 1063.8 | 1073.1 | 1088.3 | 175 | 184 | 195 | 211 | 200
313.15 K | 1060.3 | 1069.6 | 1084.9 | 138 | 142 | 150 | 160 | 149
318.15 K | 1056.8 | 1066.2 | 1081.6 | 110 | 113 | 118 | 124 | 113
323.15 K | 1053.4 | 1062.8 | 1078.3 | 90 | 91 | 94 | 99 | 89
328.15 K | 1049.9 | 1059.4 | 1075 | – | – | – | – | –
333.15 K | 1046.4 | 1056 | 1071.7 | – | – | – | – | –
338.15 K | 1042.9 | 1052.6 | 1068.3 | – | – | – | – | –
343.15 K | 1039.4 | 1049.2 | 1065 | – | – | – | – | –
348.15 K | 1035.9 | 1045.8 | 1061.7 | – | – | – | – | –
353.15 K | 1032.5 | 1042.4 | 1058.5 | – | – | – | – | –

CCn1cc[n+](C)c1.O=S(=O)([N-]S(=O)(=O)C(F)(F)F)C(F)(F)F + CCCCCC[n+]1ccn(C)c1.O=S(=O)([N-]S(=O)(=O)C(F)(F)F)C(F)(F)F
Conditions | mass density [kg/m3] | viscosity [mPa·s]
278.15 K, x2 = 0 | – | 80
278.15 K, x2 = 0.15 | – | 89
278.15 K, x2 = 0.3 | – | 95
278.15 K, x2 = 0.5 | – | 120
278.15 K, x2 = 0.7 | – | 153
278.15 K, x2 = 0.85 | – | 181
283.15 K, x2 = 0 | 1534.1 | 63
283.15 K, x2 = 0.15 | 1507.1 | 70
283.15 K, x2 = 0.3 | 1481.8 | 74
283.15 K, x2 = 0.5 | 1451 | 92
283.15 K, x2 = 0.7 | 1422.9 | 116
283.15 K, x2 = 0.85 | 1403.6 | 135
288.15 K, x2 = 0 | 1529 | 50
288.15 K, x2 = 0.15 | 1502.1 | 56
288.15 K, x2 = 0.3 | 1476.9 | 58
288.15 K, x2 = 0.5 | 1446.3 | 72
288.15 K, x2 = 0.7 | 1418.2 | 89
288.15 K, x2 = 0.85 | 1399 | 102
293.15 K, x2 = 0 | 1523.9 | –
293.15 K, x2 = 0.15 | 1497.1 | –
293.15 K, x2 = 0.3 | 1472 | –
293.15 K, x2 = 0.5 | 1441.5 | 58
293.15 K, x2 = 0.7 | 1413.5 | 70
293.15 K, x2 = 0.85 | 1394.4 | 79
295.15 K, x2 = 0 | 1521.9 | –
295.15 K, x2 = 0.15 | 1495.1 | –
295.15 K, x2 = 0.3 | 1470.1 | –
295.15 K, x2 = 0.5 | 1439.6 | –
295.15 K, x2 = 0.7 | 1411.6 | –
295.15 K, x2 = 0.85 | 1392.5 | –
298.15 K, x2 = 0 | 1518.9 | –
298.15 K, x2 = 0.15 | 1492.2 | –
298.15 K, x2 = 0.3 | 1467.2 | –
298.15 K, x2 = 0.5 | 1436.7 | –
298.15 K, x2 = 0.7 | 1408.8 | 57
298.15 K, x2 = 0.85 | 1389.7 | 63
303.15 K, x2 = 0 | 1513.9 | –
303.15 K, x2 = 0.15 | 1487.2 | –
303.15 K, x2 = 0.3 | 1462.3 | –
303.15 K, x2 = 0.5 | 1431.9 | –
303.15 K, x2 = 0.7 | 1404.1 | –
303.15 K, x2 = 0.85 | 1385.1 | 51
308.15 K, x2 = 0 | 1508.9 | –
308.15 K, x2 = 0.15 | 1482.3 | –
308.15 K, x2 = 0.3 | 1457.5 | –
308.15 K, x2 = 0.5 | 1427.2 | –
308.15 K, x2 = 0.7 | 1399.5 | –
308.15 K, x2 = 0.85 | 1380.5 | –
313.15 K, x2 = 0 | 1503.9 | –
313.15 K, x2 = 0.15 | 1477.4 | –
313.15 K, x2 = 0.3 | 1452.7 | –
313.15 K, x2 = 0.5 | 1422.5 | –
313.15 K, x2 = 0.7 | 1394.8 | –
313.15 K, x2 = 0.85 | 1375.9 | –
318.15 K, x2 = 0 | 1499 | –
318.15 K, x2 = 0.15 | 1472.5 | –
318.15 K, x2 = 0.3 | 1447.9 | –
318.15 K, x2 = 0.5 | 1417.8 | –
318.15 K, x2 = 0.7 | 1390.1 | –
318.15 K, x2 = 0.85 | 1371.3 | –
323.15 K, x2 = 0 | 1494.1 | –
323.15 K, x2 = 0.15 | 1467.7 | –
323.15 K, x2 = 0.3 | 1443.1 | –
323.15 K, x2 = 0.5 | 1413.1 | –
323.15 K, x2 = 0.7 | 1385.5 | –
323.15 K, x2 = 0.85 | 1366.8 | –
328.15 K, x2 = 0 | 1489.1 | –
328.15 K, x2 = 0.15 | 1462.8 | –
328.15 K, x2 = 0.3 | 1438.3 | –
328.15 K, x2 = 0.5 | 1408.4 | –
328.15 K, x2 = 0.7 | 1380.9 | –
328.15 K, x2 = 0.85 | 1362.2 | –
333.15 K, x2 = 0 | 1484.2 | –
333.15 K, x2 = 0.15 | 1458 | –
333.15 K, x2 = 0.3 | 1433.5 | –
333.15 K, x2 = 0.5 | 1403.7 | –
333.15 K, x2 = 0.7 | 1376.2 | –
333.15 K, x2 = 0.85 | 1357.7 | –
338.15 K, x2 = 0 | 1479.3 | –
338.15 K, x2 = 0.15 | 1453.2 | –
338.15 K, x2 = 0.3 | 1428.8 | –
338.15 K, x2 = 0.5 | 1399 | –
338.15 K, x2 = 0.7 | 1371.6 | –
338.15 K, x2 = 0.85 | 1353.2 | –
343.15 K, x2 = 0 | 1474.4 | –
343.15 K, x2 = 0.15 | 1448.4 | –
343.15 K, x2 = 0.3 | 1424.1 | –
343.15 K, x2 = 0.5 | 1394.4 | –
343.15 K, x2 = 0.7 | 1367 | –
343.15 K, x2 = 0.85 | 1348.6 | –
348.15 K, x2 = 0 | 1469.6 | –
348.15 K, x2 = 0.15 | 1443.6 | –
348.15 K, x2 = 0.3 | 1419.4 | –
348.15 K, x2 = 0.5 | 1389.8 | –
348.15 K, x2 = 0.7 | 1362.3 | –
348.15 K, x2 = 0.85 | 1344.1 | –
353.15 K, x2 = 0 | 1464.7 | –
353.15 K, x2 = 0.15 | 1438.8 | –
353.15 K, x2 = 0.3 | 1414.7 | –
353.15 K, x2 = 0.5 | 1385.2 | –
353.15 K, x2 = 0.7 | 1357.7 | –
353.15 K, x2 = 0.85 | 1339.7 | –

CCCCCCn1cc[n+](C)c1C.O=[N+]([O-])c1cn[n-]c1 [1-hexyl-2,3-dimethylimidazolium 4-nitropyrazolide] + CCCCCCCCCCCCCC[P+](CCCCCC)(CCCCCC)CCCCCC.O=S(=O)([N-]S(=O)(=O)C(F)(F)F)C(F)(F)F
Conditions | mass density, x1 = 0.25 [kg/m3] | mass density, x1 = 0.501 [kg/m3] | mass density, x1 = 0.749 [kg/m3] | viscosity, x1 = 0.098 [mPa·s] | viscosity, x1 = 0.303 [mPa·s] | viscosity, x1 = 0.5 [mPa·s] | viscosity, x1 = 0.7 [mPa·s] | viscosity, x1 = 0.898 [mPa·s]
278.15 K | – | – | – | 1280 | 1562 | 2212 | 3692 | 7584
283.15 K | 1081.8 | 1090.2 | 1104.2 | 871 | 1040 | 1418 | 2223 | 4009
288.15 K | 1078.2 | 1086.7 | 1100.5 | 606 | 707 | 933 | 1385 | 2241
293.15 K | 1074.6 | 1083.2 | 1097 | 434 | 495 | 636 | 897 | 1330
295.15 K | 1073.2 | 1081.7 | 1095.7 | – | – | – | – | –
298.15 K | 1071.1 | 1079.7 | 1093.6 | 319 | 357 | 447 | 605 | 830
303.15 K | 1067.5 | 1076.2 | 1090.3 | 239 | 264 | 324 | 422 | 545
308.15 K | 1063.9 | 1072.7 | 1086.9 | 184 | 200 | 240 | 304 | 373
313.15 K | 1060.4 | 1069.3 | 1083.5 | 144 | 154 | 182 | 223 | 263
318.15 K | 1057 | 1065.9 | 1080.2 | 115 | 121 | 142 | 169 | 192
323.15 K | 1053.5 | 1062.6 | 1077 | 93 | 97 | 112 | 131 | 144
328.15 K | 1050 | 1059.2 | 1073.7 | – | – | – | – | –
333.15 K | 1046.5 | 1055.8 | 1070.5 | – | – | – | – | –
338.15 K | 1043 | 1052.4 | 1067.2 | – | – | – | – | –
343.15 K | 1039.5 | 1049 | 1064 | – | – | – | – | –
348.15 K | 1036.1 | 1045.7 | 1060.7 | – | – | – | – | –
353.15 K | 1032.6 | 1042.3 | 1057.5 | – | – | – | – | –
